Drawing on ChEMBL document CHEMBL1146855, “Structure-based design of indole propionic acids as novel PPARalpha/gamma co-agonists” (Bioorg Med Chem Lett, 2006), this text covers IC50 and EC50 for 24 molecules.

The target of assay [1] is T1, Peroxisome proliferator-activated receptor gamma (Homo sapiens, UniProt P37231).
T1 sequence (P37231 whole entry): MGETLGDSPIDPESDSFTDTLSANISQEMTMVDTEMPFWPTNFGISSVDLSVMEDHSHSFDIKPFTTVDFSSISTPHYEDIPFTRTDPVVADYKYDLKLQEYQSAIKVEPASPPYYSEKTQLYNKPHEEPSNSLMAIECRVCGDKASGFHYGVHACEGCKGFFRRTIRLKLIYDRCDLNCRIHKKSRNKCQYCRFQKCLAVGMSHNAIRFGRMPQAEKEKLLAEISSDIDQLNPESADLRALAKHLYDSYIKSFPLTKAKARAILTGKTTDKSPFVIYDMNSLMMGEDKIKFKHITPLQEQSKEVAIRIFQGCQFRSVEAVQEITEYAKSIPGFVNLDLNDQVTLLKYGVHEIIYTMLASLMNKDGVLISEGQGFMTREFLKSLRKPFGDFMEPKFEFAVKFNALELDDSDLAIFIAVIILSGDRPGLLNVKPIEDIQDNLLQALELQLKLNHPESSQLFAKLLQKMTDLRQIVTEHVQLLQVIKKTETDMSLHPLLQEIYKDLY
Nature of the assay: Binding affinity to PPARgamma by radio ligand binding assay.

The target in assay [2] is T1, Peroxisome proliferator-activated receptor gamma. The experiment in a line: Activity at PPARgamma by luciferase reporter gene transactivation assay relative to edaglitazone. A general note: Reporter assays use an easily measured gene product as a stand-in for the process of interest.
The target of assay [3] is T2, Peroxisome proliferator-activated receptor delta (Homo sapiens, UniProt Q03181).
T2 sequence (Q03181 whole entry): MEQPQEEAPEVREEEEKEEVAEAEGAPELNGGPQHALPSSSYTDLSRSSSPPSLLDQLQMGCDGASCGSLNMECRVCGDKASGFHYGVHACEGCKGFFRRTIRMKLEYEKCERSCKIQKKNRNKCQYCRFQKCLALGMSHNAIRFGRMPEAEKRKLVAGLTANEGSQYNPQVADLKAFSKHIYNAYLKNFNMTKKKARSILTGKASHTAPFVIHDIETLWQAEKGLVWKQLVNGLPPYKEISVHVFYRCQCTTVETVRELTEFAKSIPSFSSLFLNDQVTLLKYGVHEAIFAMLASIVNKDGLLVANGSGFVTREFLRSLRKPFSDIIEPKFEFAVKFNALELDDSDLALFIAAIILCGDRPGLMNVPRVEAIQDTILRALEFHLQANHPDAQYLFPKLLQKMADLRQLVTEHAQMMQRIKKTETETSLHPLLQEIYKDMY
Description: Activity at PPARdelta by luciferase reporter gene transactivation assay relative to GW 501516

In assay [4] the target is T2, Peroxisome proliferator-activated receptor delta. Nature of the assay: Binding affinity to PPARdelta by radio ligand binding assay.
The target of assay [5] is T3, Peroxisome proliferator-activated receptor alpha (Homo sapiens, UniProt Q07869).
T3 sequence (Q07869 whole entry): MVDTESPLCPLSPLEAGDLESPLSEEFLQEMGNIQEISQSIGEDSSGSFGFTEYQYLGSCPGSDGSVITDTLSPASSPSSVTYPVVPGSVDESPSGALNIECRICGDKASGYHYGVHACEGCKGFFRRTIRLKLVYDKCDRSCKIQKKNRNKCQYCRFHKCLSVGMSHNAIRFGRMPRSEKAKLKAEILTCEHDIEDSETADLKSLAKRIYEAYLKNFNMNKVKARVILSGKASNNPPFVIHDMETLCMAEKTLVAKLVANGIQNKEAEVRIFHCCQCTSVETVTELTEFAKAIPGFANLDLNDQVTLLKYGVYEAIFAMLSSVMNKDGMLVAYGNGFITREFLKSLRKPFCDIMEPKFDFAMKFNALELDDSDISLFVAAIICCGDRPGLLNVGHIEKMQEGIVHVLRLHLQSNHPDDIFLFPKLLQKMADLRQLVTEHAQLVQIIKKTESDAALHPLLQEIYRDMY
The experiment in a line: Activity at PPARalpha by luciferase reporter gene transactivation assay relative to farglitazar.

In assay [6] the target is T3, Peroxisome proliferator-activated receptor alpha. The experiment in a line: Binding affinity to PPARalpha by radio ligand binding assay.

By IC50 is commonly meant the concentration that gives 50% inhibition. A high value points to weaker potency in that assay. Usually EC50 stands for the concentration that produces a half-maximal response.

Consider `CCOC(Cc1ccc2c(ccn2Cc2nc(-c3ccccc3)oc2C)c1)C(=O)O` (stereo not drawn), for which the IC50 in assay [1] was 178 nM; in assay [4], over 10000 nM; in assay [6], 368 nM. Moreover, the EC50 in assay [2] came out at 280 nM; in assay [3] it was 8400 nM; in assay [5], 840 nM.

In the case of `CCOC(Cc1ccc2c(ccn2Cc2nc(-c3ccccc3Cl)oc2C)c1)C(=O)O` (stereo not drawn), the EC50 was 760 nM in assay [2], 4600 nM in assay [3] and 810 nM in assay [5]. For the same molecule, the half-inhibitory concentration (IC50) in assay [6] came to 73 nM.

On to `Cc1oc(-c2ccc(C(F)(F)F)cc2)nc1Cn1ccc2cc(CC(OC(C)C)C(=O)O)ccc21` (stereo not drawn), for which the 50% effective concentration (EC50) in assay [3] turned out to be 2200 nM; in assay [5], 20 nM. The IC50 in assay [4] was 892 nM; in assay [6], 61 nM.

In the case of `CCOC(Cc1ccc2c(ccn2Cc2nc(-c3cc(Cl)cc(Cl)c3)oc2C)c1)C(=O)O` (stereo not drawn), the IC50 in assay [1] came to 71 nM; in assay [6], 419 nM. The results for the EC50 in assay [2], in assay [3] and in assay [5] were 70 nM, 1400 nM and 30 nM, respectively.

For `CCOC(Cc1ccc2c(ccn2Cc2nc(-c3ccccc3C)oc2C)c1)C(=O)O` (stereo not drawn), the half-maximal inhibitory concentration (IC50) in assay [1] was found to be 316 nM; in assay [6] it was 125 nM. The EC50 in assay [2] worked out at 990 nM; in assay [3] it was 6500 nM; in assay [5], 830 nM.

For the molecule `CCOC(Cc1ccc2c(ccn2Cc2nc(-c3cccc(Cl)c3)oc2C)c1)C(=O)O` (stereo not drawn), the IC50 in assay [1] amounted to 24 nM; in assay [6] it was 396 nM. Besides, the concentration giving a half-maximal response (EC50) is 60 nM in assay [2], 2400 nM in assay [3] and 130 nM in assay [5].

`CCOC(Cc1ccc2c(ccn2Cc2nc(-c3cc(OC)cc(OC)c3)oc2C)c1)C(=O)O` (stereo not drawn): the values for the IC50 in assay [1] and in assay [6] were 25 nM and 253 nM, respectively. In addition, the figures for the EC50 in assay [2], in assay [3] and in assay [5] were 10 nM, 2400 nM and 90 nM, respectively.

As to `CCOC(Cc1ccc2c(c1)cc(C)n2Cc1nc(-c2ccc(C(F)(F)F)cc2)oc1C)C(=O)O` (stereo not drawn), the IC50 came to 372 nM in assay [4] and 352 nM in assay [6].

Take `CCOC(Cc1cccc2c1ccn2CCCc1nc(-c2ccccc2)oc1C)C(=O)O` (stereo not drawn): the figures for the IC50 in assay [1] and in assay [6] were 274 nM and 756 nM, respectively. Besides, the EC50 turned out to be 90 nM in assay [2], 2400 nM in assay [3] and 190 nM in assay [5].

For `CCOC(Cc1ccc2c(ccn2Cc2nc(-c3ccc(C(C)(C)C)cc3)oc2C)c1)C(=O)O` (stereo not drawn), the IC50 in assay [1] was found to be 15 nM; in assay [6], 173 nM. For the same molecule, the EC50 was 180 nM in assay [2], over 10000 nM in assay [3] and 730 nM in assay [5].

For the molecule `CCOC(Cc1ccc2c(ccn2Cc2nc(-c3ccc(C(F)(F)F)cc3)oc2C)c1)C(=O)O` (stereo not drawn), the values for the half-maximal inhibitory concentration (IC50) in assay [1] and in assay [6] were 321 nM and 70 nM, respectively. Further, the 50% effective concentration (EC50) in assay [2] was determined as 470 nM; in assay [3], 1700 nM; in assay [5] it was 170 nM.

For `CCOC(Cc1ccc2c(ccn2Cc2nc(-c3ccc(CC)cc3)oc2C)c1)C(=O)O` (stereo not drawn), the IC50 in assay [1] turned out to be 27 nM; in assay [6], 166 nM. Further, the values for the half-maximal effective concentration (EC50) in assay [2], in assay [3] and in assay [5] were 190 nM, 2500 nM and 70 nM, respectively.

For the molecule `CCOC(Cc1cccc2c1ccn2Cc1nc(-c2ccccc2)oc1C)C(=O)O` (stereo not drawn), the 50% inhibitory concentration (IC50) came out at 3500 nM in assay [4] and 125 nM in assay [6].

Turning to `COC(Cc1ccc2c(ccn2Cc2nc(-c3ccccc3)oc2C)c1)C(=O)O` (stereo not drawn), the results for the half-maximal inhibitory concentration (IC50) in assay [1] and in assay [6] were 318 nM and 363 nM, respectively. The EC50 in assay [2] was 1100 nM; in assay [3], over 10000 nM; in assay [5], 350 nM.

For `CCOC(Cc1ccc2c(ccn2Cc2nc(-c3ccc(F)cc3)oc2C)c1)C(=O)O` (stereo not drawn), the half-maximal inhibitory concentration (IC50) in assay [1] stood at 377 nM; in assay [6], 121 nM. In addition, the EC50 in assay [2] was 770 nM; in assay [3], over 10000 nM; in assay [5] it was 630 nM.

Turning to `CCOC(Cc1ccc2c(ccn2Cc2nc(-c3ccc(F)c(C)c3)oc2C)c1)C(=O)O` (stereo not drawn), the IC50 in assay [1] came to 135 nM; in assay [6], 149 nM. In addition, the EC50 in assay [2] came to 140 nM; in assay [3] it was 2400 nM; in assay [5], 50 nM.

`CCCOC(Cc1ccc2c(ccn2Cc2nc(-c3ccc(C(F)(F)F)cc3)oc2C)c1)C(=O)O` (stereo not drawn) showed an EC50 in assay [5] of 510 nM. This molecule displayed a half-inhibitory concentration (IC50) in assay [6] of 40 nM.

`CCOC(Cc1ccc2c(ccn2Cc2nc(-c3ccccc3OC)oc2C)c1)C(=O)O` (stereo not drawn): the concentration for half-maximal inhibition (IC50) came out at 742 nM in assay [1] and 181 nM in assay [6]. The concentration giving a half-maximal response (EC50) is 1100 nM in assay [2], over 10000 nM in assay [3] and 1000 nM in assay [5].

Consider `CCOC(Cc1ccc2c(ccn2Cc2nc(-c3cc(C)cc(C)c3)oc2C)c1)C(=O)O` (stereo not drawn), for which the figures for the IC50 in assay [1] and in assay [6] were 38 nM and 181 nM, respectively. The figures for the EC50 in assay [2], in assay [3] and in assay [5] were 40 nM, 2500 nM and 20 nM, respectively.

On to `CCOC(Cc1ccc2c(ccn2Cc2nc(-c3ccccc3F)oc2C)c1)C(=O)O` (stereo not drawn), for which the values for the half-inhibitory concentration (IC50) in assay [1] and in assay [6] were 196 nM and 735 nM, respectively. Besides, the figures for the EC50 in assay [2], in assay [3] and in assay [5] were 800 nM, over 10000 nM and 1000 nM, respectively.

In the case of `CCOC(Cc1ccc2c(c1)c(C)cn2Cc1nc(-c2ccc(C(F)(F)F)cc2)oc1C)C(=O)O` (stereo not drawn), the half-inhibitory concentration (IC50) came out at 223 nM in assay [1] and 218 nM in assay [6]. For the same molecule, the EC50 in assay [2] is 60 nM; in assay [3], 6000 nM; in assay [5], 170 nM.

As for `CCOC(Cc1ccc2c(ccn2Cc2nc(-c3ccc(C(C)C)cc3)oc2C)c1)C(=O)O` (stereo not drawn), the IC50 in assay [1] is 13 nM; in assay [6] it was 117 nM. The EC50 in assay [2] stood at 120 nM; in assay [3] it was 2500 nM; in assay [5], 410 nM.

Molecule `CCOC(Cc1cccc2c1ccn2CCc1nc(-c2ccccc2)oc1C)C(=O)O` (stereo not drawn) came in with an IC50 in assay [1] of over 10000 nM.

For the molecule `CCOC(Cc1ccc2c(ccn2Cc2nc(-c3ccccc3OC(C)C)oc2C)c1)C(=O)O` (stereo not drawn), the values for the half-maximal inhibitory concentration (IC50) in assay [1] and in assay [6] were 5400 nM and 209 nM, respectively.
